According to patent US6495591B1, “Fungal efflux pump inhibitors” (Essential Therapeutics, Inc., priority 1997, dated 2002):
In brackets after ≈: the same amount, converted by molar mass. Where two headings read alike, the source gives them in different places.

Key:
[1] = test system: C. neoformans; assay: microbe, parasite or virus in culture; format: cell-based, Cryptococcus neoformans
[2] = test system: C. albicans YEM-15 (CDR1 & CDR2 overexpressor); assay: microbe, parasite or virus in culture; format: cell-based; set-up: MIC Reduction Factor, fluconazole / MIC Reduction Factor, itraconazole / MIC Reduction Factor, ketoconazole / MIC Reduction Factor, terbinafine: unit not given beside the values; conditions: for MIC: Candida albicans
[3] = test system: S. cerevisiae YEM-39 overexpressing CgCDR (C. glabrata); assay: microbe, parasite or virus in culture; format: cell-based; set-up: MIC Reduction Factor, fluconazole: unit not given beside the values; conditions: for MIC: Saccharomyces cerevisiae
[4] = test system: C. albicans clinical isolates (n = 33); assay: microbe, parasite or virus in culture; format: cell-based
[5] = target: pFLU (MF) efflux pump in S. cerevisiae YEM-38 (Candida albicans, UniProt G1UB37); assay: cell-based; format: cell-based, C. albicans
[6] = test system: C. glabrata clinical isolates (n = 12); assay: microbe, parasite or virus in culture; format: cell-based
[7] = test system: C. albicans YEM-24 (CDR1, CDR2 deleted); assay: microbe, parasite or virus in culture; format: cell-based
[8] = test system: C. glabrata YEM-17 (CgCDR overexpressor); assay: microbe, parasite or virus in culture; format: cell-based
[9] = test system: mammalian P-glycoprotein multi-drug resistant pump; format: cell-based, mouse
Description: The inhibitory effect of milbemycin β1 against the mammalian P-glycoprotein multi-drug resistant pump was determined following the procedure described by Tsuruo et al (Cancer Res., 1981. 41:1967-1972) with slight modification. The cytotoxicity of antitumor agent, adriamycin, against adriamycin sensitive P388 cell line (mouse leukemia) and its adriamycin resistant subline line (P388/ADM) was measured in the presence of various concentrations of milbemycin β1. […] The assay is performed in serum-free media containing 20 μM of 2-mercaptoethanol. Chemosensitivity to adriamycin was determined […] based on the reduction of MTT (3-[4,5-dimethylthiazol-2-yl]-2,5-diphenyltetrazolium bromide) into blue formazan.

[10] = test system: C. albicans YEM-20 (CDR1 deleted); assay: microbe, parasite or virus in culture; format: cell-based
[11] = test system: C. albicans YEM-10 (low level CDR1 expressor); assay: microbe, parasite or virus in culture; format: cell-based
[12] = test system: S. cerevisiae YEM-40 (CgCDR, MF, introduced); assay: microbe, parasite or virus in culture; format: cell-based; conditions: Saccharomyces cerevisiae, read-out: MIC Mb alone
[13] = test system: S. cerevisiae YEM-2 (BEN introduced); assay: microbe, parasite or virus in culture; format: cell-based; conditions: Saccharomyces cerevisiae, read-out: MIC Mb alone
[14] = read-out: Terbinafine MIC in the presence of FEPImax
[15] = YEM-15, milbemycin α9 at FEPImax
[16] = YEM-39 (CgCDR), milbemycin α9 at FEPImax
[17] = YEM-39, milbemycin α9 at FEPImax
[18] = Candida albicans, read-out: MIC Mb alone

Chain of pFLU (MF) efflux pump in S. cerevisiae YEM-38 (G1UB37 whole entry): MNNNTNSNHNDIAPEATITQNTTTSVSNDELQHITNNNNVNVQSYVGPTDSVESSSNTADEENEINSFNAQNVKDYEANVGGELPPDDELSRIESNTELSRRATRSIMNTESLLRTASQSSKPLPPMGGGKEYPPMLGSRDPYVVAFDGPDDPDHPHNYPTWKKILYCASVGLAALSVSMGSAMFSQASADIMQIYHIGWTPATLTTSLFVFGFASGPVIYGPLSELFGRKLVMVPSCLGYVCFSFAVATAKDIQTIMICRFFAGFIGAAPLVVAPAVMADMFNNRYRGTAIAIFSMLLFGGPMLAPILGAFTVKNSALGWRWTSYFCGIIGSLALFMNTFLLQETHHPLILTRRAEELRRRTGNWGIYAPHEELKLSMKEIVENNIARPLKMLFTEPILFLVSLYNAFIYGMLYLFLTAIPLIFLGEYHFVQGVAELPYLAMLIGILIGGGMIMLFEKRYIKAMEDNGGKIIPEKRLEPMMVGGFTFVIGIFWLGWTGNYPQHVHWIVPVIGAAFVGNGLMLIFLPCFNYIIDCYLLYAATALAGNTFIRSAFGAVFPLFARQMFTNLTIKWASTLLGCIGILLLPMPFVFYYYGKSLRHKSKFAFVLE

For C/C1=C\C[C@@H]2C[C@@H](C[C@]3(CC[C@H](C)[C@@H](C)O3)O2)OC(=O)[C@@H]2C=C(COC(=O)c3ccc[nH]3)[C@@H](O)[C@H]3OC/C(=C\C=C\[C@H](C)C1)[C@]32O [Compound 11, Milbemycin α9], the “Fluconazole MIC, + milbemycin α9” value [1] was “≦0.25 μg/ml”, the MIC ([2]; read-out: Milbemycin α9 MIC) was over 64 mg/L and the MIC [2, 14] was 0.125 mg/L. The “FEPImax (minimal milbemycin α9 conc. for maximum MIC reduction), fluconazole” value ([2]; YEM-15) was 16 mg/L, the “FEPImax (minimal milbemycin α9 conc. for maximum MIC reduction), itraconazole” value ([2]; YEM-15) was 1 mg/L and the “FEPImax (minimal milbemycin α9 conc. for maximum MIC reduction), ketoconazole” value ([2]; YEM-15) was 4 mg/L. The “FEPImax (minimal milbemycin α9 conc. for maximum MIC reduction), terbinafine” value ([2]; YEM-15) was 4 mg/L, the “Fluconazole MIC in the presence of FEPImax” value [2, 15] was 2 mg/L and the “Itraconazole MIC in the presence of FEPImax” value [2, 15] was 0.06 mg/L. For the same molecule, the “Ketoconazole MIC in the presence of FEPImax” value [2, 15] was 0.015 mg/L, the “MIC Reduction Factor, fluconazole” value [2, 15] was 64 and the “MIC Reduction Factor, itraconazole” value [2, 15] was 8. For the same molecule, the “MIC Reduction Factor, ketoconazole” value [2, 15] was 64, the “MIC Reduction Factor, terbinafine” value [2, 15] was 1024 and the MIC ([3]; read-out: Milbemycin α9 MIC) was over 64 mg/L. The MIC [3, 14] was 1 mg/L, the “FEPImax (minimal milbemycin α9 conc. for maximum MIC reduction), fluconazole” value ([3]; YEM-39 (CgCDR)) was 2 mg/L and the “FEPImax (minimal milbemycin α9 conc. for maximum MIC reduction), terbinafine” value ([3]; YEM-39 (CgCDR)) was 2 mg/L. For the same molecule, the “Pump inhibition (%), fluconazole” value [3, 16] was 60%, the “Pump inhibition (%), terbinafine” value [3, 16] was 66% and the “Fluconazole MIC in the presence of FEPImax” value [3, 17] was 4 mg/L. For the same molecule, the “MIC Reduction Factor, fluconazole” value [3, 17] was 16, the “Inhibition of CgCDR efflux pump from C. glabrata” value ([3]; summary of Table 9, fluconazole and terbinafine) was 60-65% and the “Fluconazole MIC50, + milbemycin α9” value [4] was under 0.25 mg/L. The “Fluconazole MIC90, + milbemycin α9” value [4] was under 0.25 mg/L, the “Fluconazole MIC Range, + milbemycin α9” value [4] was under 0.25 to 1 mg/L and the “Reduction of fluconazole MIC90 by milbemycin α9” value ([4]; C. albicans (n=33)) was over 512 fold. The IC50 [5] was over 100 µM, the “Fluconazole MIC50, + milbemycin α9” value [6] was 2 mg/L and the “Fluconazole MIC Range, + milbemycin α9” value [6] was under 0.25 to 16 mg/L. For the same molecule, the “Reduction of fluconazole MIC90 by milbemycin α9” value ([6]; C. glabrata (n=12)) was 16 fold and the “Fluconazole MIC90, + milbemycin α9” value ([6]; C. glabrata n = 12, MIC (80%) in YPD) was 8 mg/L.
CO[C@H]1C[C@@]2(O)/C(CO)=C/C=C/[C@H](C)C/C(C)=C/C[C@@H]3C[C@@H](C[C@]4(CC[C@H](C)[C@@H](C)O4)O3)OC(=O)[C@@H]2C=C1C [Compound 6, Milbemycin β1] was tested, and the MIC [7, 18] was 16 mg/L (≈ 29.4 µM), the “MIC of fluconazole, Flu + Mb (2.5 μg/ml)” value ([7]; YEM-24, CDR1, CDR2 deleted, milbemycin β1 2.5 μg/ml) was 0.125 mg/L and the MIC ([8]; Nakaseomyces glabratus, read-out: MIC of milbemycin β1 (MB) alone) was over 64 mg/L. For the same molecule, the “Fluconazole MIC with 2.5 μg/ml milbemycin β1” value ([8]; YEM-17) was 4 mg/L, the “Fluconazole MIC with 5 μg/ml milbemycin β1” value ([8]; YEM-17) was 2 mg/L and the “Fluconazole MIC with 10 μg/ml milbemycin β1” value ([8]; YEM-17) was 2 mg/L. For the same molecule, the “Fluconazole MIC with […] milbemycin β1” value ([8]; YEM-17) was 8 mg/L, the “Potency as inhibitor of the mammalian p-glycoprotein multi-drug resistant pump” value ([9]; compared with verapamil) was “potency similar to that of verapamil” and the “Ratio [P388/A]/[P388]” value ([9]; inhibitor 0.06 μg/ml) was 220. The “Ratio [P388/A]/[P388]” value ([9]; inhibitor 0.25 μg/ml) was 75, the “Ratio [P388/A]/[P388]” value ([9]; inhibitor 0.5 μg/ml) was 32 and the “Ratio [P388/A]/[P388]” value ([9]; inhibitor 1 μg/ml) was 23. For the same molecule, the “Ratio [P388/A]/[P388]” value ([9]; inhibitor 2 μg/ml) was 4, the “Ratio [P388/A]/[P388]” value ([9]; inhibitor 3.125 μg/ml) was 5 and the MIC [10, 18] was 16 mg/L (≈ 29.4 µM). The “MIC of fluconazole, Flu + Mb (2.5 μg/ml)” value ([10]; YEM-20, CDR1 deleted, milbemycin β1 2.5 μg/ml) was 0.125 mg/L, the MIC [11, 18] was 16 mg/L (≈ 29.4 µM) and the “MIC of fluconazole, Flu + Mb (2.5 μg/ml)” value ([11]; YEM-10, milbemycin β1 2.5 μg/ml) was 0.125 mg/L. It also gave an MIC [12] of 8 mg/L (≈ 14.7 µM) and an MIC [13] of 8 mg/L (≈ 14.7 µM).
